Data: patent US20050112573A1, “Method of detecting toxic substance” (priority 2001, published 2005)
Like-named read-outs stand apart in the source and are kept apart here.

Experiments:
[1] = test system: promoter of yeast gene YLL057c; format: cell-based, Saccharomyces cerevisiae W303; conditions: for expression of GFP: SC-YLL057C-pQBI cells, summary of Table 13
From the text: (§1) The inventors of the present application understood that the induction of certain yeast genes by toxic substances is caused by the activation of the promoters of the genes by the toxic substances. Thus, the inventors prepared a vector that comprised a polynucleotide sequence comprising the promoter of the yeast gene, which sequence is operably linked to a polynucleotide encoding a marker protein; and transformed yeast cells with the vector. […] The working examples hereinafter illustrate the preparation of such vectors, transformation of yeast cells by use of said vectors, and the detection of toxic substances by use of the transformed cells.
(§2) Promoter assay is a method for determining variations of the level of intracellular genes without destroying cells on the basis of the level of expressed marker genes instead of the expressed mRNA. The gene selected to detect a chemical substance is expressed in the absence of chemical substances, and thus a marker protein also occurs in the absence of chemical substances. In the method according to the present invention, the behavior of yeast genes on the addition of test materials is determined on the basis of the level of expressed marker protein so that the presence or the absence, and the kind of toxic chemical substances are predicted. Thus, it is desired that the production of marker proteins is lower in the absence of chemical substances, and the production of marker proteins is higher in the presence of chemical substances.
(§3) Type YEp shuttle vector pYES2 (pYES2, Cat no: V825-20, Invirtogen Corporation, USA), which can be replicated both in E. coli. and yeast was used as vector (R. W. Old, S. B. Primrose Principles of Gene Manipulation 5th Ed., BAIFUKAN CO., LTD, pp138-165, pp.234-263, 2000). The portion of vector PQBI 63 (Cat no.54-0082, Wako Pure Chemical Industries, Ltd.) corresponding to a marker protein GFP was used as the polynucleotide encoding GFP (SEQ ID No: 6). First, the GFP polynucleotide was inserted into the multiple cloning sites of pYES2 to give a vector. Thereafter, the GALL promoter of pYES2 was replaced with the polynucleotide comprising the promoter sequence of the intended yeast gene YLL057c (SEQ ID No: 4) to give an intended plasmid vector. Suitable restriction enzymes were selected, and the insertion of the polynucleotide comprising GFP and the promoter sequence was conducted.
(§4) Next, the yeast Saccharomyces cerevisiae W303 was transformed with the resultant plasmid vector according to the following procedures: • 1) Incubating the yeast Saccharomyces cerevisiae W303 in 200 ml of SD medium under shaking until OD 660 reaches 0.5; • 2) Suspending the collected cells in 5 ml of TE-buffer; • 3) Adding 250 μL of 2.5M lithium acetate; • 4) Dispending each 300 μl, adding 10 μl of above plasmid vector thereto, then incubating the suspensions at 30° C. for 30 minutes; • 5) Adding 700 μl of 50% PEG4000, and incubating the mixture under shaking at 30° C. for 60 minutes; • 6) Giving heat shock (42° C., 5 minutes), and then immediately cooling the mixture; • 7) Washing the mixture twice with 1M sorbitol; and • 8) Seeding it on agar plates made of minimum essential medium.
(§5) The cells of SC-YLL057C-pQBI as prepared in Example 5 were contacted to one of the following compounds. The yeast cells SC-YLL057C-pQBI were incubated at 25° C. in SD medium (Yeast nitrogen base without amino acids (Difco 0919-15)+glucose+amino acids (adenine, histidine, tryptophan)). One of toxic chemical substances as shown below was added to the cells at logarithmic growth phase, and then the cells were further incubated for two hours.

[2] = test system: promoter of yeast gene YCR102c; format: cell-based, Saccharomyces cerevisiae W303
From the text: as §1, §2
as §3, with “YCR102c” for “YLL057c”, “2)” for “4)”
as §4
as §5, with “of SC-YCR102C-pQBI” for “of SC-YLL057C-pQBI”, “Example 3” for “Example 5”, “cells SC-YCR102C-pQBI” for “cells SC-YLL057C-pQBI”

[3] = cells SC-YLL057C-pQBI, 2 hours incubation with the substance at the concentration printed in its row (column Concentrations), GFP fluorescence vs control without chemical
[4] = cells SC-YCR102C-pQBI, 2 hours incubation with the substance at the concentration printed in its row (column Concentrations), GFP fluorescence vs control without chemical

Compound | Fluorescence [1, 3] | Fluorescence [2, 4] | other results
CCCCC(CC)COC(=O)c1ccccc1C(=O)OCC(CC)CCCC (stereo not shown) | − (the number of the cells having a higher fluorescence than the control was under 1%) | − (the number of the cells having a higher fluorescence than the control was under 1%) | 
CN(C)C(=S)SSC(=S)N(C)C [(10), Tetramethylthiuram disulfide] |  |  | expression of GFP ([2]; SC-YCR102C-pQBI cells, summary of Table 11): induced the expression of GFP
CCN(CC)C(=O)SCc1ccc(Cl)cc1 [S-4-Chlorobenzyl-N,N-diethylthiocarbamate] | − (the number of the cells having a higher fluorescence than the control was under 1%) | − (the number of the cells having a higher fluorescence than the control was under 1%) | 
CC(=O)O.Cc1nc(N)cc2[nH]c3ccccc3c12 [Trp-P-2 (acetate)] |  |  | Fluorescence [1]: − (key: −: the number of the cells having a higher fluorescence than the control was under 1%; +: between 1% and 2%; ++: 2% or more); Fluorescence [2]: − (key: −: the number of the cells having a higher fluorescence than the control was under 1%; +: between 1% and 2%; ++: 2% or more)
O=S(=O)([O-])[O-].[Cu+2] [copper sulfate (II)] |  |  | Fluorescence [1]: − (key: −: the number of the cells having a higher fluorescence than the control was under 1%; +: between 1% and 2%; ++: 2% or more); Fluorescence [2]: − (key: −: the number of the cells having a higher fluorescence than the control was under 1%; +: between 1% and 2%; ++: 2% or more)
CCOC(=O)CC(SP(=S)(OC)OC)C(=O)OCC (stereo not shown) [malathon] | − (the number of the cells having a higher fluorescence than the control was under 1%) | − (the number of the cells having a higher fluorescence than the control was under 1%) | 
[CH3][Hg][Cl] [methylmercury chloride] | − (the number of the cells having a higher fluorescence than the control was under 1%) | − (the number of the cells having a higher fluorescence than the control was under 1%) | 
[Cl][Ni][Cl] [nickel (II) chloride] |  |  | Fluorescence [1]: − (key: −: the number of the cells having a higher fluorescence than the control was under 1%; +: between 1% and 2%; ++: 2% or more); Fluorescence [2]: − (key: −: the number of the cells having a higher fluorescence than the control was under 1%; +: between 1% and 2%; ++: 2% or more)
[K+].[K+].[O]=[Cr](=[O])([O-])[O][Cr](=[O])(=[O])[O-] [potassium bichromate] | − (the number of the cells having a higher fluorescence than the control was under 1%) | − (the number of the cells having a higher fluorescence than the control was under 1%) | 
[Cl][Sn]([c]1ccccc1)([c]1ccccc1)[c]1ccccc1 [triphenyltin chloride] | − (the number of the cells having a higher fluorescence than the control was under 1%) | − (the number of the cells having a higher fluorescence than the control was under 1%) | 
CdCl2 [(2)] | ++ (2% or more) | − (the number of the cells having a higher fluorescence than the control was under 1%) | expression of GFP [1]: induced the expression of GFP
HgCl2 [(3)] | − (the number of the cells having a higher fluorescence than the control was under 1%) | − (the number of the cells having a higher fluorescence than the control was under 1%) | 
Na2As [(1)] | ++ (2% or more) | − (the number of the cells having a higher fluorescence than the control was under 1%) | expression of GFP [1]: induced the expression of GFP
manganese ethylenebis(dithiocarbamate) [(8)] | − (the number of the cells having a higher fluorescence than the control was under 1%) | − (the number of the cells having a higher fluorescence than the control was under 1%) | 
γ-hexachlorocyclohexane [(7)] | − (the number of the cells having a higher fluorescence than the control was under 1%) | − (the number of the cells having a higher fluorescence than the control was under 1%) | 
